Data as given in ChEMBL document CHEMBL2034899, “5-Arylbenzothiadiazine Type Compounds as Positive Allosteric Modulators of AMPA/Kainate Receptors” (ACS Med Chem Lett, 2012).
Activity calls are given as the source filed them. The rule behind the calls is not given here.

Experiments:
Cerebral cortex neuron [1] = test: Positive allosteric modulation at AMPA receptor in primary cortical neurons assessed as potentiation of kainate-induced current at 10 uM by patch clamp analysis; type: cell-based
Cerebral cortex neuron [2] = test: Positive allosteric modulation at AMPA receptor in primary cortical neurons assessed as potentiation of kainate-induced current at 100 uM by patch clamp analysis
[3] = Drug uptake in mouse nucleus accumbens assessed as 7-chloro-5-(3-furyl)-3- methyl-4H-1,2,4-benzothiadiazine 1,1-dioxide level at 20 mg/kg, ip measured after 140 mins; type: ADME, organism-based; design: dose 20 mg/kg, route intraperitoneal; conditions: in vivo
[4] = Drug uptake in mouse nucleus accumbens assessed as 7-chloro-5-(3-furyl)-3- methyl-4H-1,2,4-benzothiadiazine 1,1-dioxide level at 20 mg/kg, ip measured after 2 hrs; type: ADME, organism-based; design: dose 20 mg/kg, route intraperitoneal; conditions: in vivo
[5] = Drug uptake in mouse nucleus accumbens assessed as 7-chloro-5-(3-furyl)-3- methyl-4H-1,2,4-benzothiadiazine 1,1-dioxide level at 20 mg/kg, ip measured after 1 hr; type: ADME, organism-based; design: dose 20 mg/kg, route intraperitoneal; conditions: in vivo, read-out: Drug uptake
[6] = Drug uptake in mouse nucleus accumbens at 20 mg/kg, ip measured after 2 hrs; type: ADME, organism-based; design: dose 20 mg/kg, route intraperitoneal; conditions: in vivo
[7] = Drug uptake in mouse nucleus accumbens at 20 mg/kg, ip measured after 40 mins; type: ADME, organism-based; design: dose 20 mg/kg, route intraperitoneal; conditions: read-out: Drug uptake
[8] = Positive allosteric modulation at AMPA receptor in primary cortical neurons assessed as potentiation of kainate-induced current by patch clamp analysis; type: cell-based; conditions: Cerebral cortex neuron

Row | SMILES | Activity (Cerebral cortex neuron [1]) [%] | Activity (Cerebral cortex neuron [2]) | also measured
1 | O=C(O)c1ccc(-c2cc(Cl)cc3c2NCNS3(=O)=O)cc1 | < 10 | inactive | –
2 | CC1Nc2c(-c3ccco3)cc(Cl)cc2S(=O)(=O)N1 (stereo not given) | 80 | inactive | –
3 | CCC1Nc2c(-c3ccc(C(=O)O)cc3)cc(Cl)cc2S(=O)(=O)N1 (stereo not given) | < 10 | inactive | –
4 | CC1Nc2c(-c3ccc(C(=O)O)cc3)cc(Cl)cc2S(=O)(=O)N1 (stereo not given) | < 10 | inactive | –
5 | CC1Nc2c(-c3cccs3)cc(Cl)cc2S(=O)(=O)N1 (stereo not given) | < 10 | inactive | –

Second part, led by results:

Row | Activity (Cerebral cortex neuron [1]) [%] | Activity (Cerebral cortex neuron [2]) | SMILES | also measured
6 | 53 | inactive | CC1CN2c3c1cc(Cl)cc3S(=O)(=O)NC2C (racemic) | –
7 | 214 | inactive | CC1Nc2c(-c3ccsc3)cc(Cl)cc2S(=O)(=O)N1 (stereo not given) | –
8 | < 10 | inactive | Nc1cccc(-c2cc(Cl)cc3c2NCNS3(=O)=O)c1 | –
9 | < 10 | inactive | CCC1Nc2c(-c3ccco3)cc(Cl)cc2S(=O)(=O)N1 (stereo not given) | –
10 | < 10 | inactive | CC1Nc2c(-c3cccc(N)c3)cc(Cl)cc2S(=O)(=O)N1 (stereo not given) | –
11 | 358 | inactive | CC1Nc2c(-c3ccoc3)cc(Cl)cc2S(=O)(=O)N1 (stereo not given) | Drug uptake [3]: Not Active; Drug uptake [4]: Active; concentration [5]: 8 µM; Drug uptake [6]: Not Active; concentration at 40 min [7]: 37 µM; EC50 [8]: 1300 nM
12 | 20 | inactive | O=S1(=O)NCNc2c(-c3ccco3)cc(Cl)cc21 | –
